Test results from PubChem BioAssay (NCI).
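Exposure lasted 48 hours, with cells grown in 96-well plates and compounds tested at five concentrations. GI50 = concentration required for 50% inhibition of growth. Definition used: TGI = concentration required for complete inhibition of growth.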

What was measured:
Assay in all cases: inhibition of tumour cell growth, NCI panel, 48 h; in the data active means GI50 below about 0.43 µM; inactive means the rest
[1] = test system: A498 renal
[2] = test system: RPMI-8226 leukemia
[3] = test system: K-562 leukemia
[4] = test system: HL-60(TB) leukemia
[5] = test system: LOX IMVI melanoma
[6] = test system: MALME-3M melanoma
[7] = test system: UACC-62 melanoma
[8] = test system: SNB-75 CNS
[9] = test system: HCT-15 colon
[10] = test system: SF-295 CNS
[11] = test system: HT29 colon
[12] = test system: MDA-MB-231 breast
[13] = test system: CAKI-1 renal
[14] = test system: HOP-62 NSCLC
[15] = test system: OVCAR-3 ovarian
[16] = test system: UO-31 renal
[17] = test system: U251 CNS
[18] = test system: IGROV1 ovarian
[19] = test system: SK-OV-3 ovarian
[20] = test system: SK-MEL-28 melanoma
[21] = test system: COLO 205 colon
[22] = test system: HCC-2998 colon
[23] = test system: ACHN renal
[24] = test system: HCT-116 colon
[25] = test system: NCI-H23 lung
[26] = test system: BT-549 breast
[27] = test system: 786-0 renal
[28] = test system: NCI-H226 lung
[29] = test system: OVCAR-8 ovarian
[30] = test system: KM12 colon
[31] = test system: NCI-H460 lung
[32] = test system: OVCAR-5 ovarian
[33] = test system: DU-145 prostate
[34] = test system: M14 melanoma
[35] = test system: SK-MEL-2 melanoma
[36] = test system: PC-3 prostate
[37] = test system: TK-10 renal
[38] = test system: RXF 393 renal
[39] = test system: MDA-MB-435
[40] = test system: NCI/ADR-RES ovarian
[41] = test system: MCF7 breast
[42] = test system: SF-539 CNS
[43] = test system: SW-620 colon
[44] = test system: T-47D breast
[45] = test system: HS 578T breast
[46] = test system: CCRF-CEM leukemia
[47] = test system: SF-268 CNS
[48] = test system: MOLT-4 leukemia
[49] = test system: SNB-19 CNS
[50] = test system: HOP-92 NSCLC
[51] = test system: OVCAR-4 ovarian
[52] = test system: SN12C renal
[53] = test system: A549 NSCLC
[54] = test system: UACC-257 melanoma
[55] = test system: SK-MEL-5 melanoma
[56] = test system: SR leukemia
[57] = test system: NCI-H522 lung

Cn1cc(C2=C(c3cn(CCCCC(=N)N)c4ccccc34)C(=O)NC2=O)c2ccccc21
inactive: GI50 [1] > 25 µM | GI50 [2] > 25 µM | GI50 [3] 13.5 µM | GI50 [4] 16.7 µM | GI50 [5] > 25 µM | GI50 [6] > 25 µM | GI50 [7] > 25 µM | GI50 [8] 1.65 µM | GI50 [9] > 25 µM | GI50 [10] > 13.7 µM | GI50 [11] > 22.9 µM | GI50 [12] > 25 µM | GI50 [13] > 25 µM | GI50 [14] > 25 µM | GI50 [15] > 23.7 µM | GI50 [16] > 25 µM | GI50 [17] 17.2 µM | GI50 [18] > 21.9 µM | GI50 [19] > 25 µM | GI50 [20] > 25 µM | GI50 [21] 11.8 µM | GI50 [22] > 25 µM | GI50 [23] > 25 µM | GI50 [24] 17.5 µM | GI50 [25] > 25 µM | GI50 [26] > 25 µM | GI50 [27] > 25 µM | GI50 [28] > 25 µM | GI50 [29] > 25 µM | GI50 [30] 20.3 µM | GI50 [31] > 23.8 µM | GI50 [32] > 25 µM | GI50 [33] > 25 µM | GI50 [34] > 25 µM | GI50 [35] 12.6 µM | GI50 [36] > 25 µM | GI50 [37] > 25 µM | GI50 [38] > 25 µM | GI50 [39] 10.5 µM | GI50 [40] > 25 µM | GI50 [41] 10.9 µM | GI50 [42] > 21.6 µM | GI50 [43] > 25 µM | GI50 [44] > 25 µM | GI50 [45] > 25 µM | GI50 [46] 11.5 µM | GI50 [47] > 25 µM | GI50 [48] 22.1 µM | GI50 [49] 21.8 µM | GI50 [50] > 25 µM | GI50 [51] > 25 µM | GI50 [52] > 25 µM | GI50 [53] > 25 µM | GI50 [54] > 25 µM | GI50 [55] > 23.6 µM | GI50 [56] 11.1 µM | GI50 [57] 18.6 µM
> 25 µM: TGI [1] | TGI [2] | TGI [3] | TGI [4] | TGI [5] | TGI [6] | TGI [7] | TGI [8] | TGI [9] | TGI [10] | TGI [11] | TGI [12] | TGI [13] | TGI [14] | TGI [15] | TGI [16] | TGI [17] | TGI [18] | TGI [19] | TGI [20] | TGI [21] | TGI [22] | TGI [23] | TGI [24] | TGI [25] | TGI [26] | TGI [27] | TGI [28] | TGI [29] | TGI [30] | TGI [31] | TGI [32] | TGI [33] | TGI [34] | TGI [35] | TGI [36] | TGI [37] | TGI [38] | TGI [39] | TGI [40] | TGI [41] | TGI [42] | TGI [43] | TGI [44] | TGI [45] | TGI [46] | TGI [47] | TGI [48] | TGI [49] | TGI [50] | TGI [51] | TGI [52] | TGI [53] | TGI [54] | TGI [55] | TGI [56] | TGI [57]
